Results on seven substances are retold here after patent publication US6197926A, “Methods for treatment of diabetes using peptide analogues of insulin” (Neurocrine Biosciences, priority 1999, dated 2001).

What all share (assay): Proliferation of insulin-specific NOD T cell clone
Holding throughout (type): cell-based, mouse
Conditions in all cases: 50 μg/ml peptide, 72 hours

For one experiment, the system named is T cell clone PD12-2.40. The method, then:
(§1) Insulin specific NOD T cell lines were established by culturing lymphocytes isolated from islet-infiltrating populations by in vitro stimulation with either porcine insulin at 25 μg/ml and irradiated NOD islet cells in the presence of irradiated NOD spleen cells as antigen presenting cells and cytokines. To obtain the infiltrating lymphocytes the following procedures were performed (see WeLimann et al., Eur. J. Immunol. 24:1853, 1994): the pancreas from the NOD mouse was digested with collatenase and individual islets were isolated manually. The infiltrating lymphocytes were then obtained by mild trypsin digestion of the islets. The insulin specific T cell lines or clones were propagated by serial stimulation in the presence of NOD spleen cells, porcine insulin and lymphokines. Clones were obtained by limiting dilution of the B chain (9-23) specific T cell lines in the presence of the antigen presenting cells and porcine insulin at 25 μg/ml. Wells with a growing population of cells following limiting dilution were expanded in appropriate medium, and after one cycle of growth were tested for reactivity to the B chain (9-23) peptide of insulin by evaluating the proliferative response.
(§2) Insulin B chain (9-23) (SEQ ID NO:2) specific mouse (NOD) T cell clones were isolated from infiltrated islets as described in Example 2. Peptide analogues with single alanine substitutions were prepared as described in Example 1. The effect of each analogue on T cell prolircration was then evaluated using an assay performed in 96-well flat bottom microtiter plates (see Daniel et al., Eur. J. Immunol. 25 :1056, 1995). Briefly 25,000 T cell clones along with 1 million irradiated NOD spleen cells were cultured in the presence of 50 μg/ml of insulin B chain 9-23 peptide or any of the alanine substituted peptides listed below in triplicate sets. The plates were incubated for a total of 72 hours in 7% carbon dioxide atmosphere with a pulse of 1 μCi/well of tritiated thymidine for the last 6-8 hours of culture. Cells were harvested on a glass fiber filter and the associated radioactivity was counted in a liquid scintillation counter. Results are expressed as mean counts per minute of triplicate wells.
NOD T cell clones were incubated in the presence of 50 μM of either the native B chain (9-23) peptide or NBI-6024. The data in Table 3 represent the mean of triplicate sample±standard error of the mean. Within Table 3, S.I. (Stimulation Index)=proliferation (cpm) in the presence of the peptide/proliferation (cpm) in medium alone.

The test system of the next experiment is T cell clone PD12-4.34. The method, then: as §1, §2
In a further experiment the test system is T cell clone PD6-4.3. As to the method: as §1, §2
The next experiment deals with T cell clone PD12-4.29. As to the method: as §1, §2
The subject of the next experiment is T cell clone PD12-4.4. The method, then:
as §1, §2

Turning to “Modified Position 10: insulin B chain (9-23) peptide analogue with native residue H at position 10 substituted with alanine”, the “Response (cpm)” value with T cell clone PD12-2.40 was determined as 1409 cpm; in the experiment on T cell clone PD12-4.34, 356 cpm; in the experiment on T cell clone PD6-4.3, 12507 cpm; in the experiment with T cell clone PD12-4.29, 15484 cpm; in the experiment with T cell clone PD12-4.4, 823 cpm.

On to “Modified Position 11: insulin B chain (9-23) peptide analogue with native residue L at position 11 substituted with alanine”, for which the “Response (cpm)” value is 2594 cpm in the experiment on T cell clone PD12-2.40; 190 cpm in the experiment with T cell clone PD12-4.34; 14148 cpm with T cell clone PD6-4.3; 18416 cpm in the experiment with T cell clone PD12-4.29; 474 cpm with T cell clone PD12-4.4.

“Modified Position 19: insulin B chain (9-23) peptide analogue with native residue C at position 19 substituted with alanine”: the “Response (cpm)” value with T cell clone PD12-2.40 was found to be 34212 cpm; in the experiment on T cell clone PD12-4.34, 689 cpm; with T cell clone PD6-4.3, 7678 cpm; in the experiment on T cell clone PD12-4.29, 6054 cpm; in the experiment on T cell clone PD12-4.4 it was 4295 cpm.

On to “Modified Position 20: insulin B chain (9-23) peptide analogue with native residue G at position 20 substituted with alanine”, for which the “Response (cpm)” value in the experiment on T cell clone PD12-2.40 came to 38685 cpm; in the experiment on T cell clone PD12-4.34, 466 cpm; with T cell clone PD6-4.3, 2440 cpm; in the experiment with T cell clone PD12-4.29, 13736 cpm; with T cell clone PD12-4.4, 1323 cpm.

For “Modified Position 21: insulin B chain (9-23) peptide analogue with native residue E at position 21 substituted with alanine”, the “Response (cpm)” value in the experiment with T cell clone PD12-2.40 was found to be 39087 cpm; in the experiment with T cell clone PD12-4.34, 773 cpm; with T cell clone PD6-4.3, 91 cpm; with T cell clone PD12-4.29, 4904 cpm; in the experiment on T cell clone PD12-4.4 it was 7900 cpm.

As for “Modified Position 22: insulin B chain (9-23) peptide analogue with native residue R at position 22 substituted with alanine”, the “Response (cpm)” value was found to be 51722 cpm with T cell clone PD12-2.40; 1555 cpm with T cell clone PD12-4.34; 6555 cpm in the experiment with T cell clone PD6-4.3; 12635 cpm in the experiment on T cell clone PD12-4.29; 1313 cpm in the experiment on T cell clone PD12-4.4.

For the substance “Modified Position 23: insulin B chain (9-23) peptide analogue with native residue G at position 23 substituted with alanine”, the “Response (cpm)” value in the experiment on T cell clone PD12-2.40 came out at 75441 cpm; in the experiment on T cell clone PD12-4.34, 791 cpm; with T cell clone PD6-4.3, 14304 cpm; in the experiment on T cell clone PD12-4.29 it was 18422 cpm; in the experiment on T cell clone PD12-4.4 it was 3228 cpm.
